From patent US10874103B2, “Antibacterial composition comprising an acetal or a long-chain alkyl hexitane ether” (TEREOS STARCH & SWEETENERS BELGIUM, priority 2014, dated 2020)

Assays:
Assay type in all cases: cell-based
[1] = test system: E. faecalis (ATCC® 29212™); assay: MIC, 96-well microplate microdilution (Example 4); details: Mueller-Hinton medium, 18 h at 37° C.
Experimental: (§1) The bacteriostatic properties of the derivatives are evaluated by measuring their minimum inhibitory concentration (MIC) on the bacteria tested. Such a measurement is made using the 96-well microplate microdilution method according to the conditions defined below.
(§2) The minimum inhibitory concentrations (MIC) are tested on Gram-positive bacterial strains according to the recommendations of the “Clinical Laboratory Standards Institute” (Clinical-Laboratory-Standards-Institute, 6th ed. Approved standard M100-S17. CLSI, Wayne, Pa., 2007).
(§3) The Gram-positive bacteria studied are as follows: L. monocytogenes (CIP 103575), E. faecalis (ATCC® 29212™) and S. aureus (ATCC® 292213™).
(§4) The cultures studied, freshly isolated (after incubation on a blood agar at 37° C. for 18 h), are taken up in sterile water (10 mL) until a 0.5 McFarland (Mc) suspension i.e. 1 to 2×10^8 CFU (bacteria)/cm^3 is obtained. The bacterial suspension was then diluted to obtain a final concentration of 5×10^5 CFU/cm^3.
(§5) Each well contains an identical quantity of Mueller-Hinton medium (a rich medium for bacterial culture) and bacteria with final 5×10^5 CFU/cm^3.
(§6) The test compounds of interest are solubilized in 2.5% m of ethanol before being diluted to different concentrations two by two.
(§7) On the multiwell plate, a first series has been planned comprising the culture medium without the test compound of interest. It corresponds to the growth control (control well). These controls serve as reference for comparing bacterial growth with that of the subsequent wells comprising different concentrations of the test compound of interest. The second series of wells comprises the mother solution for the test compound of interest for a concentration in the wells of 4 mM. Each series of wells was diluted two by two until the last series for a final concentration of 0.003 mM. Each concentration is duplicated in the same plate. The plate is incubated for 18 h at 37° C. […] If there is antibacterial activity, the bacterial growth is inhibited, which means that no turbidity or bacterial residue is present.
(§8) Tests have been conducted on Gram-positive bacteria with sorbitan derivatives. […] After sterilization the solutions are diluted in water. The results obtained for antimicrobial tests on the 3 bacterial strains L. monocytogenes (CIP 103575), E. faecalis (ATCC® 29212™) and S. aureus (ATCC® 292213™) are summarized in Table 1.

[2] = test system: L. monocytogenes (CIP 103575); assay: MIC, 96-well microplate microdilution (Example 4); details: Mueller-Hinton medium, 18 h at 37° C.
Experimental: as §1, §2, §3, §4, §5, §6, §7, §8

[3] = test system: S. aureus (ATCC® 292213™); assay: MIC, 96-well microplate microdilution (Example 4); details: ATCC 292213; Mueller-Hinton medium, 18 h at 37° C.
Experimental: as §1, §2, §3, §4, §5, §6, §7, §8

[4] = test system: E. faecalis (ATCC® 29212™); assay: MBC, bacterial count from clear wells reseeded on agar (Example 5); details: Table 2; reseeded on agar
Experimental: (§9) To determine whether the agents tested are bactericidal, the minimum bactericidal concentration (MBC) is determined. The MBC corresponds to the concentration leaving a number of bacterial survivors of <4 log. For this, a bacterial count is run from clear wells or without bacterial residue (C≤MIC). To do this, a dilution to 1/100 was conducted with the two wells with the same concentration before seeding on a blood agar using the Spiral technique. After 24 h of incubation at 37° C., the visual count allowed determination of the minimum concentration from which there is no bacterial growth.
(§10) To determine the bactericidal effect of compounds presenting bacteriostatic properties, the wells no longer presenting turbidity were reseeded on agar.

[5] = test system: L. monocytogenes (CIP 103575); assay: as above; details: Table 2; reseeded on agar
Experimental: as §9, §10

[6] = test system: S. aureus (ATCC® 292213™); assay: as above; details: Table 2
Experimental: as §9, §10

[7] = test system: Listeria: L. monocytogenes strains; assay: MIC microdilution on wider panel (Example 8), Listeria strains
Experimental: The cultures studied, freshly isolated (after incubation on a blood agar at 37° C. for 18 h), are taken up in sterile water (10 mL) until a 0.5 McFarland (Mc) suspension i.e. at 1 to 2×10^8 CFU (bacteria)/cm^3 is obtained. The bacterial suspension was then diluted to obtain a final concentration of 1×10^6 CFU/cm^3. Each well contains an identical quantity of Mueller-Hinton medium (a rich medium for bacterial culture) and bacteria with final 0.5×10^6 CFU/cm^3. The test compounds of interest are solubilized in ethanol or DMSO at 25 mg/mL before being diluted to different concentrations two by two. On the multiwell plate, a first series has been planned comprising the culture medium without the test compound of interest. It corresponds to the growth control (control well). These controls serve as reference for comparing bacterial growth with that of the subsequent wells comprising different concentrations of the test compound of interest. The second series of wells comprises the mother solution for the test compound of interest for a concentration in the wells of 256 mg (7 mM). Each series of wells was diluted two by two until the last series for a final concentration of 0.25 mg/L (0.0007 mM). Each concentration is duplicated in the same plate. The plate is incubated for 18 h at 37° C. […] If there is antibacterial activity, the bacterial growth is inhibited, which means that no turbidity or bacterial residue is present. The minimum inhibitory concentrations (MIC) are tested on Gram-positive bacterial strains according to the recommendations of the “Clinical Laboratory Standards Institute” (Clinical-Laboratory-Standards-Institute, 6th ed. Approved standard M100-S17. CLSI, Wayne, Pa., 2007). The clinical strains have been isolated in the Hospice de Lyon. Listeria: L. monocytogenes (CIP 103575), clinical strain isolated from hemoculture (015189074801, LM1), a strain isolated from cerebrospinal liquid (015170199001, LM2), clinical strains isolated from hemoculture (015181840701, LM3). The cultures studied, freshly isolated (after incubation on a blood agar at 37° C. for 18 h), are taken up in sterile water (10 mL) until a 0.5 McFarland (Mc) suspension i.e. at 10^8 CFU (bacteria)/cm^3 is obtained. The bacterial suspension was then diluted to obtain a final concentration of 10^6 CFU/cm^3.

Dodecyl-1,4-d-sorbitan [Example 2e]
Minimum inhibitory concentration (MIC) E. faecalis [1]: 120 µM
Minimum inhibitory concentration (MIC) L. monocytogenes [2]: 120 µM
Minimum inhibitory concentration (MIC) S. aureus [3]: 120 µM
minimum bactericidal concentration (MBC) E. faecalis [4]: 120 µM
minimum bactericidal concentration (MBC) L. monocytogenes [5]: 120 µM
minimum bactericidal concentration (MBC) S. aureus [6]: 120 µM
Minimum inhibitory concentration (MIC) CIP 103575 ([7]; L. monocytogenes CIP 103575): 32 µg/mL
Minimum inhibitory concentration (MIC) LM3 ([7]; clinical strain from hemoculture 015181840701): 32 µg/mL
Minimum inhibitory concentration (MIC) LM1 ([7]; clinical strain from hemoculture 015189074801): 16 µg/mL
Minimum inhibitory concentration (MIC) LM2 ([7]; strain from cerebrospinal liquid 015170199001): 32 µg/mL
